For the series, the system named is miR-323a-5p. The series can be described thus: miR-323a-5p expression levels by qPCR after transfection. It is filed as cell-based. To be noted: SK-N-BE(2), miRNA 50 nM. On the procedure:
For in vitro experiments, SK-N-BE(2) neuroblastoma cells were reverse transfected with the addition of the QS-sRNA complexes to complete cell culture medium (IMDM, 10% heat-inactivated foetal bovine serum (FBS) South America Premium (Biowest, Nuaillé, France)) without antibiotics. After overnight (o/n) incubation media was changed for IMDM supplemented with 10% FBS and antibiotics.
Total RNA including small RNAs was extracted using the miRNeasy Mini Kit (Qiagen, Las Matas, Spain). mRNAs were reverse transcribed (0.5 μg total RNA) using Taqman RT kit (#4366596; Applied Biosystems, Thermo Fisher Scientific), and mature miRNA expression analysis was quantified using Taqman microRNA assays (#4440047; Applied Biosystems, Thermo Fisher Scientific) following manufacturer's recommendations. cDNA was quantified by standard RT-qPCR methodology using 2× Power SYBR Green Master Mix (Applied Biosystems, Thermo Fisher Scientific) using the ABI700SDS equipment. […] The relative fold-change Relative quantification of gene expression was performed with a comparative 2^(−ΔΔCT) method (Livak K J, Schmittgen T D. Analysis of relative gene expression data using real-time quantitative PCR and the 2(−Delta Delta C(T)) method. Methods 2001; 25: 402-408).
The RNU44 is as a housekeeping gene, commonly used to normalize the smallRNA content in the analyzed samples. […]
A general note: Real-time PCR tracks product formation cycle by cycle.

Regarding “miRNA naked: miRIDIAN hsa-miR-323a-5p mimic AGGUGGUCCGUGGCGCGUUCGC (SEQ ID NO: 1), not complexed (listed as RNA, chemistry not given here)”, the miR-323a-5p expression levels result is reported as “could not increase”.

For the origin of these results see patent publication US20220249376A1, “NANOVESICLES AND ITS USE FOR NUCLEIC ACID DELIVERY” (FUNDACIÓ HOSPITAL UNIVERSITARI VALL D'HEBRON - INSTITUT DE …, priority 2019, published 2022).
